Measured values reported in ChEMBL document CHEMBL4390705, “A new lateral root growth inhibitor from the sponge-derived fungus Aspergillus sp. LS45” (Bioorg Med Chem Lett, 2019).
Activity calls are given as the source filed them. The rule behind the calls is not given here.

What was measured:
CCRF-CEM = assay: Cytotoxicity against human CCRF-CEM cells by MTT assay; type: functional, cell-based
K562 = assay: Cytotoxicity against human K562 cells by MTT assay; type: functional, cell-based
Acetylcholinesterase = molecular target: T1, Acetylcholinesterase (Mus musculus, UniProt P21836); assay: Inhibition of mouse brain homogenate AChE using acetylthiocholine iodide as substrate measured after 15 mins in presence of BChE inhibitor methopropazine hydrochloride by DTNB reagent based colorimetric method; type: tissue-based
T1 sequence (P21836 whole entry): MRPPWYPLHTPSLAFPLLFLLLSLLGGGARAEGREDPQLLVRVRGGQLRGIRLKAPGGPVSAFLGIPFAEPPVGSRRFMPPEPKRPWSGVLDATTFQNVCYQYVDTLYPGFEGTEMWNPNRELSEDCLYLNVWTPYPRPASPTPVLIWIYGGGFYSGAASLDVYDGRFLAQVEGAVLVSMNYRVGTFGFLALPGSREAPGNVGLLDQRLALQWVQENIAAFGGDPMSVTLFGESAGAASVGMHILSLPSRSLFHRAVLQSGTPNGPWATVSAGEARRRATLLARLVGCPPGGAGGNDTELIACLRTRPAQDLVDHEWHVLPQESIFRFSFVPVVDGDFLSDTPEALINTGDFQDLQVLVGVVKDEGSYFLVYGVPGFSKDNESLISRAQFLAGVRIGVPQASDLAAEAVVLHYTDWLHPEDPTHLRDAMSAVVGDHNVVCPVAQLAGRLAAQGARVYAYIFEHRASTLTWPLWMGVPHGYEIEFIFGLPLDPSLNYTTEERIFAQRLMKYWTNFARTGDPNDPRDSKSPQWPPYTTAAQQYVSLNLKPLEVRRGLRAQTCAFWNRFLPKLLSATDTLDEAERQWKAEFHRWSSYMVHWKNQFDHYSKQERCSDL

Arabidopsis thaliana [1] = assay: Inhibition of seed germination in Arabidopsis thaliana Columbia-0 assessed as reduction in lateral root growth up to 100 uM incubated for 10 days under 16 hrs-light/8 hrs-dark condition by microscopic analysis; type: functional, organism-based
Arabidopsis thaliana [2] = assay: Inhibition of seed germination in Arabidopsis thaliana Columbia-0 assessed as reduction in primary root growth up to 100 uM incubated for 10 days under 16 hrs-light/8 hrs-dark condition by microscopic analysis; type: functional, organism-based
AGS = assay: Cytotoxicity against human AGS cells by MTT assay; type: functional, cell-based
BGC-823 = assay: Cytotoxicity against human BGC823 cells by MTT assay; type: functional, cell-based
MDA-MB-231 = assay: Cytotoxicity against human MDA-MB-231 cells by MTT assay; type: functional, cell-based
HCT-116 = assay: Cytotoxicity against human HCT116 cells by MTT assay; type: functional, cell-based
Arabidopsis thaliana [3] = assay: Inhibition of seed germination in Arabidopsis thaliana Columbia-0 assessed as reduction in lateral root growth at 50 to 100 uM incubated for 10 days under 16 hrs-light/8 hrs-dark condition by microscopic analysis; type: functional, organism-based
Arabidopsis thaliana [4] = assay: Inhibition of seed germination in Arabidopsis thaliana Columbia-0 assessed as reduction in primary root growth at 100 uM incubated for 10 days under 16 hrs-light/8 hrs-dark condition by microscopic analysis; type: functional, organism-based
Arabidopsis thaliana [5] = assay: Inhibition of seed germination in Arabidopsis thaliana Columbia-0 assessed as reduction in primary root growth at 50 uM incubated for 10 days under 16 hrs-light/8 hrs-dark condition by microscopic analysis; type: functional, organism-based

| Compound | IC50 (CCRF-CEM) [µM] | IC50 (K562) [µM] | IC50 (Acetylcholinesterase) [µM] | inhibition (Arabidopsis thaliana [1]) | inhibition (Arabidopsis thaliana [2]) | IC50 (AGS) [µM] | IC50 (BGC-823) [µM] | IC50 (MDA-MB-231) [µM] | IC50 (HCT-116) [µM] | inhibition (Arabidopsis thaliana [3]) | inhibition (Arabidopsis thaliana [4]) | inhibition (Arabidopsis thaliana [5]) |
| --- | --- | --- | --- | --- | --- | --- | --- | --- | --- | --- | --- | --- |
| Nc1cc(F)ccc1NC(=O)c1ccc(CNC(=O)/C=C/c2cccnc2)cc1 [TUCIDINOSTAT] | 0.63 | 1.34 |  |  |  |  |  |  |  |  |  |  |
| CCCC1=C/C(=C\[C@H](O)[C@@H](C)O)OC1=O | > 50 | > 50 | > 200 | inactive | inactive | > 50 | > 50 | > 50 | > 50 |  |  |  |
| CCCC1=C/C(=C/[C@H](O)[C@@H](C)O)OC1=O | > 50 | > 50 | > 200 |  |  | > 50 | > 50 | > 50 | > 50 | Active | inactive | Active |
| CC(C)c1ccc(CO)c2ccc(C(=O)O)cc12 | 13.8 | 12.9 | > 200 |  |  |  |  |  |  | Active | inactive | Active |
| CC[C@H](O)c1oc(=O)cc(OC)c1C | > 50 | > 50 | > 200 | inactive | inactive | > 50 | > 50 | > 50 | > 50 |  |  |  |
